Measurements as given in patent US11220498B2, “Neuroprotective aminothiazoles” (priority 2018, dated 2022).

Key:
[1] = system: SUMOylation of His-RanGap; assay: HTRF assay measuring increase in SUMOylation of His-RanGap; type: biochemical; settings: His-RanGap substrate, SUMO-E1 (SAE), SUMO-E2 (UBC9), GST-SUMO; HTRF ratio 665/620; 30 min at room temperature; triplicate
Description: Assay measuring increase in SUMOylation of His-RanGap. We utilized an HTRF assay containing SUMO-E1 (SAE), SUMO-E2 (UBC9), GST-SUMO and His-RanGap, a known SUMO substrate, as well as the respective fluorescent antibodies. The assay was run in 1536-well plate format and the selected activators were chosen based on their ability to increase the FRET signal over a baseline level. In 1536-well white plates, 2 μl of phosphate buffered saline (assay buffer) was dispensed into columns 1 and 2, and 2 μl of Mixture 1 (37.5 nM E1 and 100 nM His-RanGap-1) in assay buffer (50 mM Tris-HCl pH 7.4, 0.3 mM DTT, 10 mM MgCl2, 0.005% Tween-20), was dispensed into columns 3-48. Using a pintool, 70 nl of 2 mM compounds in DMSO was dispensed to columns 5-48 and 70 nl of DMSO was dispensed to columns 1-4. Using the Thermo Scientific MultiDrop Combi, 2 μL of Mixture 2 (20 mM ATP, 12.5 nM E2 and 30 nM GST-SUMO in buffer) was dispensed to all wells and incubated for 30 min. at room temperature followed by 1 μl of 500 mM KF. Plates were read on a PheraStar in a HTRF mode (Ex: 337 nm; Em: 620/665 nm). The ratio of fluorescence 665 over 620 was utilized as a readout of the assay. Increase in SUMOylation was calculated by comparison to baseline level. Measurements were done in triplicate.

CSM14.1 cells = assay: Rescue of CSM14.1 neurons from thapsigargin-induced cell death (ATPlite cell viability); type: cell-based; settings: Rattus norvegicus, Neuron, 10 μM compound, 2 h preincubation, 15 μM TG for 20 h, read-out: % CSM14.1 Cell Viability after treatment with 15 μM TG in Presence of 10 μM compound
From the text: Ability of compounds to rescue CSM14.1 neurons from thapsigargin-induced cell death. To assess the ability of the compounds to rescue neurons from ER stress-induced cell death, the rat striatel neuroprogenitor cell line CSM14.1 was used. Endoplasmic reticulum (ER) stress has been established as the major cause of neuronal loss in stroke, ischemia, and neurodegeneration (Tajiri, S.; Oyadomari, S.; Yano, S.; Morioka, M.; Gotoh, T.; Hamada, J. I.; Ushio, Y.; Mori, M. Cell Death Differ. 2004, 11, 403-415; Kohno, K.; Higuchi, T.; Ohta, S.; Kumon, Y.; Sakaki, S. Neurosci. Lett. 1997, 224, 17-20; ladecola, C.; Zhang, F.; Casey, R.; Nagayama, M.; Ross, M. E. J. Neurosci. 1997, 17, 9157-9164). Thus, we used the known ER stress-causing agent thapsigargin (TG) to model the compromised state in vitro. TG causes 100% cell death in most cases, and compounds were assessed for neuroprotection by measuring cell viability when dosed at 10 μM. CSM14.1 cells were recovered from cultures by trypsinization and plated in 96-well plates and incubated overnight at 32° C. 5 μl of test compound was added to achieve a final concentration of […]. Salubrinal and DMSO without compound were used as positive and negative controls, respectively. After 2 h of preincubation, TG-containing DMEM was added to give a final concentration of 15 μM and incubated for an additional 20 h. Cell viability was assessed by a cellular ATP content assay (ATPlite, PerkinElmer Life Sciences).

BGMK cells = assay: cells; type: cell-based; settings: read-out: % BGMK Cell Viability after treatment with 15 μM TG in Presence of 10 μM compound
From the text: Ability of compounds to rescue BGMK cells from thapsigargin-induced cell death. To assess an orthogonal cell line and further validate the ability of SUMOylation activators to rescue varied cell types, the compounds were also profiled for cytoprotection in BGMK cells. Again, we used the known ER stress-causing agent thapsigargin (TG) to model the compromised state in vitro. BGMKs were subcultured at 1.2×10^4 cells/ml. Wells treated with compound were done so for 2 hr. […] After treatment, all cells were washed and fed fresh DMEM complete media and CCK-8 development vehicle, incubated for 2 hr, and absorbance was measured to assess viability. Controls were DMSO (0% viability) and Salubrinal (47% viability).

Row | SMILES | % INCREASE IN SUMOylation over endogenous baseline level [1] | viability at 10 µM (CSM14.1 cells) [%] | viability at 10 µM (BGMK cells) [%]
1 | O=C(Nc1nc(-c2ccccn2)cs1)c1ccc(S(=O)(=O)N2CCCCC2)cc1 [Compound C1, 4-(1-Piperidinylsulfonyl)-N-[4-(2-pyridinyl)-2-thiazolyl]-benzamide] | D (D = 40%-60% increase in SUMOylation over baseline levels) | 40 to 50 | –
2 | CC(=O)Nc1ccc(C(=O)Nc2nc(-c3cccnc3)cs2)cc1 [Compound C2, 4-(Acetylamino)-N-[4-(3-pyridinyl)-2-thiazolyl]-benzamide] | A (A = 10%-20% increase) | – | –
3 | O=C(Nc1nc(-c2ccccn2)cs1)c1ccc2c(c1)OCCO2 [Compound C3, N-(4-(Pyridin-2-yl)thiazol-2-yl)-2,3-dihydrobenzo[b][1,4]dioxine-6-carboxamide] | A (A = 10%-20% increase) | – | 51 to 60
4 | O=C(Nc1nc(-c2ccccn2)cs1)C1COc2ccccc2O1 (stereo not shown) [Compound C4, N-(4-(Pyridin-2-yl)thiazol-2-yl)-2,3-dihydrobenzo[b][1,4]dioxine-2-carboxamide] | D (D = 40%-60% increase in SUMOylation over baseline levels) | 61 to 70 | 61 to 85
5 | O=C(Nc1nc(-c2ccccn2)cs1)c1ccc(Cl)s1 [Compound C5, 5-Chloro-N-(4-(pyridin-2-yl)thiazol-2-yl)thiophene-2-carboxamide] | B (B = 21%-30% increase) | – | 41 to 50
6 | O=C(Nc1nc(-c2ccccn2)cs1)c1ccc(Br)s1 [Compound C6, 5-Bromo-N-(4-(pyridin-2-yl)thiazol-2-yl)thiophene-2-carboxamide] | C (C = 31%-40% increase) | 61 to 70 | 61 to 85
